≈ marks a conversion by molar mass, not a printed value. Where two headings read alike, the source gives them in different places.
Key:
[1] = test system: Escherichia coli ATCC 25922; assay: Microtitre broth dilution MIC, Escherichia coli; type: cell-based; settings: ATCC25922, read-out: MIC, EC
[2] = test system: Candida albicans ATCC 10321; assay: microbe, parasite or virus in culture; type: cell-based
[3] = test system: MCF7 human breast cancer cell line; assay: MTT cytotoxicity, MCF7; type: cell-based; settings: MCF7, 48 h, read-out: Anticancer activity IC50, MCF7
[4] = test system: methicillin-resistant strains of Staphylococcus aureus ATCC 43300; assay: Microtitre broth dilution MIC, MRSA; type: cell-based; settings: ATCC43300|MRSA, read-out: MIC, MRSA
[5] = test system: C26 colon carcinoma cell line; assay: MTT cytotoxicity, C26; type: cell-based; settings: 48 h, read-out: Anticancer activity IC50, C26
[6] = test system: Pseudomonas aeruginosa ATCC 27853; assay: Microtitre broth dilution MIC, Pseudomonas aeruginosa; type: cell-based; settings: ATCC27853, read-out: MIC, PA
[7] = test system: Aspergillus niger ATCC 16404; assay: microbe, parasite or virus in culture; type: cell-based
[8] = test system: H69PR human small cell lung cancer cell line; assay: MTT cytotoxicity, H69PR; type: cell-based; settings: 48 h, read-out: Anticancer activity IC50, H69PR
[9] = test system: Streptococcus faecalis ATCC 29212; assay: Microtitre broth dilution MIC, Streptococcus faecalis; type: cell-based; settings: Enterococcus faecalis, ATCC29212, read-out: MIC, SF
[10] = test system: methicillin-susceptible strains of Staphylococcus aureus ATCC 29213; assay: Microtitre broth dilution MIC, MSSA; type: cell-based; settings: ATCC29213|MSSA, read-out: MIC, MSSA
[11] = test system: HepG2 human hepatocyte carcinoma cell line; assay: MTT cytotoxicity, HepG2; type: cell-based; settings: HepG2, 48 h, read-out: Anticancer activity IC50, HepG2
[12] = test system: Salmonella enterica ATCC 10428; assay: Microtitre broth dilution MIC, Salmonella enterica; type: cell-based; settings: ATCC10428, read-out: MIC, SE
[13] = test system: bacterial strains (EC, PA, SF, SE, MSSA, MRSA) and fungi (CA, AN); assay: Microtitre broth dilution MIC, stated over several strains; type: cell-based; settings: Staphylococcus aureus, MRSA|MSSA, read-out: MIC against SE, SF, MSSA, and MRSA
DHFR = molecular target: T1, DHFR (Homo sapiens, UniProt P00374); assay: In vitro dihydrofolate reductase inhibition assay; type: biochemical; settings: IC50 DHFR inhibitory activity, IC50 ± SEM
T1 sequence (P00374 1-187): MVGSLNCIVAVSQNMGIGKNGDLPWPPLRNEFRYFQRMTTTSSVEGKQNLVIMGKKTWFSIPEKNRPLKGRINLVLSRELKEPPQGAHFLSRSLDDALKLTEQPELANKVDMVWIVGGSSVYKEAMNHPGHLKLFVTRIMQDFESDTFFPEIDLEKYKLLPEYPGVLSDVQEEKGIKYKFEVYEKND

VEGFR-2 = VEGFR-2 (Homo sapiens, UniProt P35968); assay: In vitro VEGFR-2 kinase inhibition assay; type: biochemical
Chain of VEGFR-2 (P35968 20-1356): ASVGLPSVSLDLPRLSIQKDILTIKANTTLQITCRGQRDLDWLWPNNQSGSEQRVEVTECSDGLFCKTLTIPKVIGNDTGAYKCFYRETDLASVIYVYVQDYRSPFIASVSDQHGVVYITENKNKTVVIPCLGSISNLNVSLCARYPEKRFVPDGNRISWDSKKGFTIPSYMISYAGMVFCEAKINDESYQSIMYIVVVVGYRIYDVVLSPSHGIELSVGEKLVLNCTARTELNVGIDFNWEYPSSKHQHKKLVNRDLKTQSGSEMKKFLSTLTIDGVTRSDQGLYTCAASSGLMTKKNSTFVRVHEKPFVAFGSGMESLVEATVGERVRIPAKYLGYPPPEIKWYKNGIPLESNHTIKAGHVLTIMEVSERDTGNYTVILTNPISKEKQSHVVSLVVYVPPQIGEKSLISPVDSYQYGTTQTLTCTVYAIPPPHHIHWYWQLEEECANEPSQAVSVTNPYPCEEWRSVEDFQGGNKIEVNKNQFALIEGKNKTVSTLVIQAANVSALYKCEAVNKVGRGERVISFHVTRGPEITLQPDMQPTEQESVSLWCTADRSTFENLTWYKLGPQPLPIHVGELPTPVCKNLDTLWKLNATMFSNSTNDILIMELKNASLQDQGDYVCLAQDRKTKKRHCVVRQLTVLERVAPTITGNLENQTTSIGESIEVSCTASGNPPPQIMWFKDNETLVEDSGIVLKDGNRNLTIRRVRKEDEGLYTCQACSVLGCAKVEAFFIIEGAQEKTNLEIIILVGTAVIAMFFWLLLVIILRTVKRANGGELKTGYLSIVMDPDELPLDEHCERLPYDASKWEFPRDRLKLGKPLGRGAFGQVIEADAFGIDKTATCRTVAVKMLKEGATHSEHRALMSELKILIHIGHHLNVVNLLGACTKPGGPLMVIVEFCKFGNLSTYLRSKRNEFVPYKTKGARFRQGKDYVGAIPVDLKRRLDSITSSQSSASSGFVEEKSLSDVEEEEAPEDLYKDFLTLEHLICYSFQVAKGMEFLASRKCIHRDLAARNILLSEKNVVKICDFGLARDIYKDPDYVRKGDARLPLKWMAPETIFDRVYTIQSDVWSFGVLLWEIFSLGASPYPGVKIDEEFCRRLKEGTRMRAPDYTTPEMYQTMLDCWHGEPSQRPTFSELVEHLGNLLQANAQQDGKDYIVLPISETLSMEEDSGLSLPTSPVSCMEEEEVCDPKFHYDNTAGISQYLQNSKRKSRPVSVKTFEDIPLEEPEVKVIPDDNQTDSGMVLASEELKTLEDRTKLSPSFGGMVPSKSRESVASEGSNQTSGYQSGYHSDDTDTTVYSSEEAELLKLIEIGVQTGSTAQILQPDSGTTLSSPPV

| SMILES | MIC [1] [µg/mL] | MIC ([2]; ATCC10321, read-out: MIC, CA) [µg/mL] | IC50 [3] [µM] | MIC [4] [µg/mL] | IC50 [5] [µM] | MIC [6] [µg/mL] | MIC ([7]; ATCC16404, read-out: MIC, AN) [µg/mL] | IC50 [8] [µM] | MIC [9] [µg/mL] | MIC [10] [µg/mL] | IC50 [11] [µM] | MIC [12] [µg/mL] | MIC [13] [µg/mL] | IC50 (DHFR) [µM] | IC50 (VEGFR-2; IC50 VEGFR-2 inhibitory activity, IC50 ± SEM) [µM] | inhibitory activity on VEGFR-2 relative to DHFR (VEGFR-2; times better on the VEGFR-2 receptor than the DHFR receptor) | MIC ([2]; ATCC10321, 72 h, read-out: MIC, CA) [µg/mL] | MIC ([7]; ATCC16404, 72 h, read-out: MIC, AN) [µg/mL] |
| --- | --- | --- | --- | --- | --- | --- | --- | --- | --- | --- | --- | --- | --- | --- | --- | --- | --- | --- |
| COc1cc(OC)c2cc(C(=O)NCCCN3CCOCC3)cc(O)c2c1 [4a, 4-Hydroxy-6,8-dimethoxy-N-(3-morpholinopropyl)-2-naphthamide] | 128 (≈ 342 µM) | 128 (≈ 342 µM) | 16.1 ± 2.42 | 256 (≈ 684 µM) | 23.8 ± 2.93 | 128 (≈ 342 µM) | 256 (≈ 684 µM) | 52.2 ± 4.81 | 128 (≈ 342 µM) | 64 (≈ 171 µM) | 14.5 ± 2.02 | 64 (≈ 171 µM) | – | – | – | – | – | – |
| COc1cc(OC)c2c(O)cc(C(=O)NCCCN3CCOCC3)cc2c1 [4b, 4-Hydroxy-5,7-dimethoxy-N-(3-morpholinopropyl)-2-naphthamide] | 128 (≈ 342 µM) | 64 (≈ 171 µM) | 18.6 ± 1.84 | 256 (≈ 684 µM) | 25.1 ± 3.23 | 128 (≈ 342 µM) | 256 (≈ 684 µM) | 53.7 ± 3.55 | 128 (≈ 342 µM) | 64 (≈ 171 µM) | 17.8 ± 2.46 | 64 (≈ 171 µM) | – | – | – | – | – | – |
| COc1cc(OC)c2cc(C(=O)NCc3ccc(C)cc3)cc(O)c2c1 [5a, 4-Hydroxy-6,8-dimethoxy-N-(4-methylbenzyl)-2-naphthamide] | 64 (≈ 182 µM) | 128 (≈ 364 µM) | 10.3 ± 2.11 | 128 (≈ 364 µM) | 9.21 ± 2.3 | 64 (≈ 182 µM) | 256 (≈ 729 µM) | 34.2 ± 5.64 | 64 (≈ 182 µM) | – | 13.6 ± 1.37 | 64 (≈ 182 µM) | – | – | – | – | – | – |
| COc1cc(OC)c2c(O)cc(C(=O)NCc3ccc(C)cc3)cc2c1 [5b, 4-Hydroxy-5,7-dimethoxy-N-(4-methylbenzyl)-2-naphthamide] | 64 (≈ 182 µM) | 64 (≈ 182 µM) | 6.75 ± 1.95 | 32 (≈ 91.1 µM) | 3.59 ± 1.04 | 64 (≈ 182 µM) | 256 (≈ 729 µM) | 28.4 ± 3.7 | 32 (≈ 91.1 µM) | 16 (≈ 45.5 µM) | 8.38 ± 1.14 | 32 (≈ 91.1 µM) | 16 to 32 (≈ 45.5 to 91.1 µM) | 9.09 ± 0.511 | 0.623 ± 0.056 | 15–20 times | – | – |
| COc1ccc(CNC(=O)c2cc(O)c3cc(OC)cc(OC)c3c2)cc1 [6a, 4-Hydroxy-6,8-dimethoxy-N-(4-methoxybenzyl)-2-naphthamide] | 64 (≈ 174 µM) | – | 15.9 ± 1.28 | 128 (≈ 348 µM) | 14.4 ± 1.62 | 64 (≈ 174 µM) | – | 29.2 ± 2.65 | 64 (≈ 174 µM) | 32 (≈ 87.1 µM) | 17.4 ± 1.51 | 64 (≈ 174 µM) | – | – | – | – | 256 (≈ 697 µM) | 256 (≈ 697 µM) |
| COc1ccc(CNC(=O)c2cc(O)c3c(OC)cc(OC)cc3c2)cc1 [6b, 4-Hydroxy-5,7-dimethoxy-N-(4-methoxybenzyl)-2-naphthamide] | 64 (≈ 174 µM) | 64 (≈ 174 µM) | 13.3 ± 2.69 | 32 (≈ 87.1 µM) | 12.3 ± 2.15 | 128 (≈ 348 µM) | 256 (≈ 697 µM) | 28.5 ± 3.29 | 32 (≈ 87.1 µM) | 32 (≈ 87.1 µM) | 14 ± 1.4 | 32 (≈ 87.1 µM) | – | – | – | – | – | – |
| COc1cc(OC)c2cc(C(=O)NCc3ccc(Br)cc3)cc(O)c2c1 [7a, N-(4-bromobenzyl)-4-hydroxy-6,8-dimethoxy-2-naphthamide] | 64 (≈ 154 µM) | 128 (≈ 307 µM) | 19.8 ± 1.59 | 128 (≈ 307 µM) | 18.5 ± 1.73 | 64 (≈ 154 µM) | 256 (≈ 615 µM) | 23 ± 2.87 | 64 (≈ 154 µM) | – | 16.7 ± 1.68 | 64 (≈ 154 µM) | – | – | – | – | – | – |

From paper PMC9494668 (ACS Omega, 2022)
